Entries after “also recorded” stand apart in the source; their conditions may differ.
Assays:
[1] = biological target: BTK (Homo sapiens, UniProt Q06187); assay: Intracellular total BTK protein in peripheral blood B lymphocytes of healthy volunteers (flow cytometry); type: in vivo
Description: The percentage of pre-study BTK protein level was determined in cryopreserved B cells by flow cytometry analysis of Mean Fluorescence Intensity.

[2] = tested on: B cell receptor (BCR); assay: Ex vivo anti-IgM induced CD86 and CD69 expression on splenocyte B cells after oral dosing of mice; type: in vivo, mouse; details: single oral 25 mg/kg
Description: B cell stimulation through the B cell receptor (BCR) with antibodies (e.g., anti-IgM) results in the activation of BTK and subsequent cellular changes, including the upregulation of various cell surface receptors. Measuring the inhibition of BCR induced protein phosphorylation downstream of Btk, and the inhibition of surface receptor upregulation provides a way to assess the Btk inhibitor activity. In the first study, the BTK target occupancy in splenocytes was measured over time, providing evidence for BTK resynthesis in the tissue compartment of interest.
Mice were sacrificed at 3, 6, 12, 18, and 24 hours after treatment with the BTK inhibitors (FIG. 27A, FIG. 27B, and FIG. 27C). Spleens were harvested and splenocyte preparations were made for flow cytometry analysis of B cell functions. Fresh or cryopreserved splenocytes were cultured with a-IgM to stimulate BCR, and the up-regulation of CD69, an early functional marker of B cell activation, was analyzed by flow cytometry.

[3] = tested on: anti-KLH IgM and IgG antibody response; assay: T cell dependent antibody response (TDAR) to KLH in rats; type: in vivo, rat; details: 1, 2.5 and 5 mg/kg/day oral gavage, KLH on Day 50
Description: Rats were treated with oral gavage administration of vehicle or Formula (II) at doses of 1, 2.5 and 5 mg/kg/day for 91 days. Sixteen rats per gender were evaluated for development of T cell dependent antibody response (TDAR), with primary immunization on Day 50 with keyhole limpet hemocyanin (KLH) by subcutaneous injection. Dosing continued and on Days 57, 64, and 71, blood samples were collected via the sublingual vein into tubes without anticoagulant and allowed to clot at room temperature for at least 30 minutes, then the serum was divided into 4 approximately equal aliquots and stored frozen at approximately −60 to −90° C. Anti-KLH IgM and IgG antibody levels were determined using an enzyme-linked immunosorbent assay (ELISA). FIG. 41A, FIG. 41B, FIG. 41C, FIG. 41D, FIG. 41E, FIG. 41F, FIG. 42A, FIG. 42B, FIG. 42C, FIG. 42D, FIG. 42E, and FIG. 42F illustrate the trends in anti-KLH antibody responses among male and female rats.

[4] = tested on: psoriasis; assay: Clinical observation of psoriasis in CLL/SLL study subjects; type: in vivo, human
Description: Clinical studies have shown that targeting the BCR signaling pathway by inhibiting BTK produces significant clinical benefit in patients with various types of leukemias and lymphomas. Formula (II) achieves significant oral bioavailability and potency, and has favorable preclinical characteristics, as described above. The purpose of this study is to evaluate the safety and efficacy of the second generation BTK inhibitor of Formula (II) in treating subjects with chronic lymphocytic leukemia (CLL) and small lymphocytic lymphoma (SLL). The primary objectives of the clinical study are as follows: […] The secondary objective of the clinical study is to evaluate tumor responses in patients treated with Formula (II). In addition, effects of Formula (II) on other patient characteristics, such as dermatoses, were evaluated for particular patients enrolled in the study. This study is a multicenter, open-label, nonrandomized, sequential group, dose escalation study. The following dose cohorts are evaluated: The study scheme is a sequential cohort escalation. Each cohort consists of six subjects. The sample size of the study is 24 to 36 subjects, depending on dose escalation into subsequent cohorts. Cohort 1 (N=6) consists of Formula (II), 100 mg QD for 28 days. Cohort 2 (N=6) consists of Formula (II), 175 mg QD for 28 days. Cohort 3 (N=6) consists of Formula (II), 250 mg QD for 28 days. Cohort 4 (N=6) consists of Formula (II), 350 mg QD for 28 days. Cohort 5 (N=6) consists of Formula (II), 450 mg QD for 28 days. Cohort 6 (N=6) consists of Formula (II), at a dose to be determined QD for 28 days. The dose level for Cohort 6 will be determined based on the safety and efficacy of Cohorts 1 to 5, and will not exceed 900 mg/day. […] Treatment with oral Formula (II) may be continued for greater than 28 days until disease progression or an unacceptable drug-related toxicity occurs. The dosage form and strength of Formula (II) used in the clinical study is a hard gelatin capsules prepared using standard pharmaceutical grade excipients (microcrystalline cellulose) and containing 25 mg of Formula (II) each. The color of the capsules is Swedish orange. The route of administration is oral (per os, or PO). […] They were treated over time with several systemic therapies including etanercept, adalimumab, and a 2010 clinical study of an experimental agent. They initially responded to etanerceptbut continued to have flares, and was under the care of a dermatologist prior to enrolling in the clinical study. Their treatment history included topical medications, and recently included Taclonex (calcipotriene/betamethasone diproprionate), without much improvement in skin lesions.

BTK, sequence (Q06187 whole entry): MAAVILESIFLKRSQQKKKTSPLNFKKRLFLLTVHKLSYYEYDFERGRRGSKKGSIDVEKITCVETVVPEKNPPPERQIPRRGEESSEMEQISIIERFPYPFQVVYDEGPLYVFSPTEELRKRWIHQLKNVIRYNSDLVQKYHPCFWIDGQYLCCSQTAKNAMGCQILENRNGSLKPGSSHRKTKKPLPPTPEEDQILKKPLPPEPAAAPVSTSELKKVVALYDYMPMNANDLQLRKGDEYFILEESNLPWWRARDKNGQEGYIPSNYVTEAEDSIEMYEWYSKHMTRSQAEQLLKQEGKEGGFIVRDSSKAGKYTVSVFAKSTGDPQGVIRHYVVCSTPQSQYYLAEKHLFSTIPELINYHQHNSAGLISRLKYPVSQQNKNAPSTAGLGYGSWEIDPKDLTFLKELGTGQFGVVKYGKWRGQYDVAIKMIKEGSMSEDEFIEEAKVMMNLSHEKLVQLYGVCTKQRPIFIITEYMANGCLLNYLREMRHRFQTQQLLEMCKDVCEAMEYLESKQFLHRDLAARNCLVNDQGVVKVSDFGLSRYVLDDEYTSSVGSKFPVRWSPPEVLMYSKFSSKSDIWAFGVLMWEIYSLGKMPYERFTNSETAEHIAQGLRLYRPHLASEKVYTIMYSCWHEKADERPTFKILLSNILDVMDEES

## CC#CC(=O)N1CCC[C@H]1c1nc(-c2ccc(C(=O)Nc3ccccn3)cc2)c2c(N)nccn12 [Formula (II), (S)-4-(8-amino-3-(1-(but-2-ynoyl)pyrrolidin-2-yl)imidazo[1,5-a]pyrazin-1-yl)-N-(pyridin-2-yl)benzamide]
[1]; 15 mg QD x 7 days, after 48 hours (between Day 2 and Day 3)
  intracellular total BTK protein level in B lymphocytes: Decreased BTK levels; also recorded: decrease
[1]; 15 mg QD, after the initial dose
  intracellular total BTK protein level in B lymphocytes: increased
[2]; Mus musculus, B-cell, 3-24 hours, read-out: CD69 % inhibition over the entire time course
  inhibition at 25 mg/kg: 84.3%
[2]; 3 hours post-dose
  inhibition of ex vivo anti-IgM induced responses in B cells: near complete inhibition
[2]; persisting for 24 hours
  inhibition of CD86 and CD69 expression: partial inhibition
[3]
  anti-KLH IgM and IgG production: significant pharmacological effects on the magnitude of IgM and IgG production
[4]; Subject 1, CLL patient with severe psoriasis, 10 month visit
  Psoriasis Area and Severity Index achieved (PASI90): 90%
[4]; Subject 1, Day 28 of treatment
  serum IL-6, MIP-1α, MCP-1β, TNFA, TARC, CXCLS, CD40L, TRAIL, EGF, CXCL1 relative to baseline: decreased
[4]; Subject 1, by Cycle 10 (10 months on treatment)
  psoriatic skin disease: their skin was clear
[4]; Subject 2, after initiation of treatment
  moderate-to-severe plaque psoriasis: cleared quickly

From patent publication US20170143712A1, “Methods of Treating Cancers, Immune and Autoimmune Diseases, and Inflammatory Diseases Based on BTK Occupancy and BTK Resynthesis Rate” (Acerta Pharma B.V., priority 2014, published 2017)
